The test system of assay [1] is S. Infantis S13. Briefly: MIC for biofilm formation (crystal violet staining). Type of assay: cell-based, Salmonella enterica Infantis. Particulars: for MICBF80: ≥80% prevention, 24 h. The method, then:
(§1) Ten concentrations of NAC, RLs, and UA were tested to determine the minimum inhibitory concentration for planktonic growth, and subsequently, the six highest concentrations were applied on preformed biofilms to evaluate the biofilm eradication ability of the compounds. MIC was defined as the lowest substance concentration able to inhibit at least 80% of microbial growth (MICPC80 for planktonic cells, MICBC80 for further growth of biofilm cells), inhibit 80% of metabolic activity (MICBM80 for biofilm metabolic activity, MICMPB80 for metabolic activity of preformed biofilm), prevent biofilm formation by at least 80% (MICBF80 for biofilm formation), or reduce a preformed biofilm by at least 80% (MICBR80 for biofilm reduction). The results of MICs are summarized in Table 1 (planktonic cells) and Table 2 (biofilm-associated cells).
(§2) The determination of MICs was performed according to Chlumsky et al.. Briefly, 96-well flat-bottomed microtiter plates were inoculated with 75 µL (for biofilm formation) or 100 µL (for preformed biofilm) of bacterial suspension (A625nm 0.08 to 0.1) in technical triplicates and were then carefully mixed with the dilution series of the test substances (24 h cultivation at 25 °C for S. Infantis, 37 °C for other strains) or were directly cultivated to preform biofilms (18 h). For a positive control of bacterial growth, the inoculum was mixed with a pure sterile medium. Furthermore, the sterile medium was included in the plate as a marker of potential microbial contamination. To evaluate planktonic cells growth (MICPC80) and further growth of biofilm cells (MICBC80), the optical density of the content of the microtiter plates was measured spectrophotometrically at 625 nm before and after 24 h (for biofilm formation) of cultivation or before and after additional 20 h incubation with the tested compound (for preformed biofilm). The difference of A625nm was considered as a measure of the ability of cells to grow in the presence of the tested substances. To evaluate the inhibition of biofilm formation (MICBF80) and reduction in preformed biofilms (MICBR80), biomass was quantified using crystal violet staining, and its metabolic activity (MICBM80 and MICMPB80) was estimated by using the MTT (thiazyl tetrazolium bromide, Sigma-Aldrich, USA) reduction assay, both measured spectrophotometrically at 595 nm.
(§3) All inhibitions were calculated using the formula of Chlumsky et al. below (Equation (1)):(1) A625(595)nm inhibition (%)=A625(595)nm (control) – A625(595)nm(natural substance)/A625(595)nm (control)× 100 where A625(595)nm (control) is the absorbance of bacterial suspension/biofilm itself, and A625(595)nm(natural substance) is the absorbance of the bacterial suspension/biofilm with the added natural substance (NAC, RLs, and UA).
(§4) When the minimum inhibitory concentration could not be determined, the MIC was established as >the highest tested concentration for NAC, RLs, and UA.

For assay [2], the system named is S. Infantis S59. The description is as above. Type of assay: cell-based, Salmonella enterica Infantis. Particulars: for MICBF80: ≥80% prevention, 24 h. The method, then:
as §1, §2, §3, §4

Assay [3] deals with cell lines HRTEC, HaCat, HDF, HEK 293, HCAEC. Briefly: Acute cytotoxicity, resazurin assay, summary over cell lines. Type of assay: cell-based, human. Particulars: 72 h. An excerpt: To test the acute cytotoxicity of the compounds, the following cell lines were used: primary human renal tubular epithelial cells (HRTEC; Evercyte, Vienna, Austria); human keratinocytes (HaCat; Thermo Fisher Scientific, Waltham, MA, USA); human dermal fibroblasts (HDF; Merck, Kenilworth, NJ, USA); human epithelial kidney cells (HEK 293; ATCC, Manassas, VI, USA); primary human coronary artery endothelial cells (HCAEC; ATCC, Manassas, VI, USA). The cell lines were maintained in a proper cultivation medium—HaCat, HDF, and Hek 293 in DMEM; HRTEC in VCB; HCAEC in ProxUp. The cytotoxicity experiment was realized according to Tran et al.. Briefly, the cells were counted by the Cellometer Auto T4 (Nexcelom Bioscience, Lawrence, MA, USA), and the cell suspension containing a cell density of 10^5 cells/mL was split into the 96-well plate, with 100 µL per well. The plates were then incubated for 24 h at 37 °C in a humidified atmosphere of 5% CO2. Then, the plates were washed three times with PBS, and the tested natural compounds were added using binary dilution in a proper medium. After 72 h of incubation, the cell viability was tested by resazurin assay. The fluorescence was measured by a SpectraMax i3× microplate reader (San Jose, CA, USA) at a wavelength of 560 nm excitation/590 nm emission.
The cytotoxicity results are expressed as the average IC50 ± standard error of the mean (SEM). […]

Assay [4] deals with S. Enteritidis ATCC 13076. Briefly: MIC for further growth of biofilm cells, preformed biofilm (A625nm). It is filed as cell-based, Salmonella enterica Enteritidis. The note with it: for MICBC80: ≥80% inhibition, 18 h preformed biofilm, 20 h with substance. The procedure: as §1
(§5) The determination of MICs was performed according to Chlumsky et al.. […] To evaluate planktonic cells growth (MICPC80) and further growth of biofilm cells (MICBC80), the optical density of the content of the microtiter plates was measured spectrophotometrically at 625 nm before and after 24 h (for biofilm formation) of cultivation or before and after additional 20 h incubation with the tested compound (for preformed biofilm). […] To evaluate the inhibition of biofilm formation (MICBF80) and reduction in preformed biofilms (MICBR80), biomass was quantified using crystal violet staining, and its metabolic activity (MICBM80 and MICMPB80) was estimated by using the MTT (thiazyl tetrazolium bromide, Sigma-Aldrich, USA) reduction assay, both measured spectrophotometrically at 595 nm.
(§6) All inhibitions were calculated using the formula of Chlumsky et al. below (Equation (1)):(1) A625(595)nm inhibition (%)=A625(595)nm (control) – A625(595)nm(natural substance)/A625(595)nm (control)× 100 where A625(595)nm (control) is the absorbance of bacterial suspension/biofilm itself, and A625(595)nm(natural substance) is the absorbance of the bacterial suspension/biofilm with the added natural substance (NAC, RLs, and UA). […]

Assay [5] has as its system S. aureus 1241. Briefly: MIC for reduction of preformed biofilm (crystal violet staining). Type of assay: cell-based, Staphylococcus aureus. Particulars: for maximal achieved inhibition (MICBR80 not reached), biofilm reduction: preformed biofilm, within tested concentrations; for MICBR80: ≥80% reduction of preformed biofilm (18 h), 20 h with substance. The procedure:
as §1, §2, §3, §4

Assay [6] concerns S. aureus 816. The assay is described as above. It is filed as cell-based, Staphylococcus aureus. Particulars: for MICBR80: ≥80% reduction of preformed biofilm (18 h), 20 h with substance. The procedure:
as §1, §2, §3, §4

For assay [7], the system named is S. Enteritidis ATCC 13076. Briefly: MIC for biofilm metabolic activity (MTT reduction assay). It is filed as cell-based, Salmonella enterica Enteritidis. Particulars: for MICBM80: ≥80% inhibition, 24 h. The procedure:
as §1, §5, §6

Assay [8] deals with E. coli 693/17. Briefly: MIC for planktonic cell growth (A625nm). Type of assay: cell-based, Escherichia coli. Particulars: for MICPC80: ≥80% inhibition, 24 h. The procedure: as §1, §2, §3, §4
The subject of assay [9] is E. coli 683/17. Briefly: MIC for planktonic cell growth (A625nm). It is filed as cell-based, Escherichia coli. Particulars: for MICPC80: ≥80% inhibition, 24 h. The method, then:
as §1, §2, §3, §4

The subject of assay [10] is S. Infantis S13. Briefly: MIC for reduction of preformed biofilm (crystal violet staining). It is filed as cell-based, Salmonella enterica Infantis. Particulars: for MICBR80: ≥80% reduction of preformed biofilm (18 h), 20 h with substance. The method, then: as §1, §2, §3, §4
For assay [11], the system named is S. Infantis S59. The assay is described as above. Particulars: for MICBR80: ≥80% reduction of preformed biofilm (18 h), 20 h with substance. It is filed as cell-based, Salmonella enterica Infantis. The procedure: as §1, §2, §3, §4
Assay [12] deals with S. Enteritidis ATCC 13076. Briefly: MIC for metabolic activity of preformed biofilm (MTT reduction assay). It is filed as cell-based, Salmonella enterica Enteritidis. The note with it: for MICMPB80: ≥80% inhibition, 20 h with substance. The method, then:
as §1, §5, §6
Background: Tetrazolium dyes change colour on reduction, which living cells bring about.

Assay [13] deals with S. Enteritidis ATCC 13076. Briefly: MIC for planktonic cell growth (A625nm). It is filed as cell-based, Salmonella enterica Enteritidis. Particulars: for MICPC80: ≥80% inhibition, 24 h. The method, then: as §1, §5, §6
The mark [14] stands for this setting: preformed biofilm, within tested concentrations.

The text below walks through data of article PMC8583417, “Evaluation of the Antimicrobial Efficacy of N-Acetyl-L-Cysteine, Rhamnolipids, and Usnic Acid—Novel Approaches to Fight Food-Borne Pathogens” (International Journal of Molecular Sciences, 2021).

What is called IC50 is the concentration that inhibits the measured activity by half.

The structures appear in SMILES notation. ≈ marks a conversion by molar mass, not a printed value.

For `CC(=O)c1c(O)c(C)c(O)c2c1OC1=CC(=O)C(C(C)=O)C(=O)C12C` (single isomer, unassigned; (+)) [UA, (+)-usnic acid], the figures for the “maximal achieved inhibition (MICBF80 not reached)” value in [1] (within tested concentrations) and in [2] (within tested concentrations) were 45% and 34%, respectively. The MICBF80 in [1] and in assay [2] was greater than 31.3 µg/mL each time. Further, the “IC50, range over cell lines” value in [3] fell in the range of 0.03 to 4.35 µg/mL. The “maximal achieved inhibition (MICBC80 not reached)” value in assay [4] (within tested concentrations) amounted to 51%. This compound came in with an MICBC80 in assay [4] greater than 31.3 µg/mL. For the same compound, the “maximal achieved inhibition (MICBR80 not reached), biofilm reduction” value worked out at 72% in assay [5], 35% in assay [6] (setting [14]), 30% in [10] (setting [14]) and 21% in [11] (setting [14]). Moreover, the MICBR80 in assay [5], in assay [6], in assay [10] and in assay [11] was greater than 31.3 µg/mL each time. For the same compound, in assay [7] (within tested concentrations), the “maximal achieved inhibition (MICBM80 not reached)” value is 45%. The MICBM80 in [7] is recorded as greater than 31.3 µg/mL. Moreover, the “maximal achieved inhibition (MICPC80 not reached)” value amounted to 40% in assay [8] (within tested concentrations), 20% in assay [9] (within tested concentrations) and 42% in assay [13] (within tested concentrations). The MICPC80 in assay [8], in assay [9] and in assay [13] was greater than 31.3 µg/mL in each case. The “maximal achieved inhibition (MICMPB80 not reached)” value in assay [12] (within tested concentrations) is 53%. Further, in assay [12], the MICMPB80 was greater than 31.3 µg/mL.

In the case of `CC(=O)N[C@@H](CS)C(=O)O` [NAC, N-Acetyl-L-cysteine], the MICBF80 in [1] is 12,500 µg/mL; in assay [2] it was 6250 µg/mL. For the same compound, the IC50 in assay [3] (Homo sapiens, read-out: IC50, range over cell lines) fell in the range of 460 to 4020 µg/mL (≈ 2820 to 24600 µM). This compound returned an MICBC80 in [4] of 6250 µg/mL. Moreover, in [5], the “maximal achieved inhibition (MICBR80 not reached), biofilm reduction” value is listed as 31%. The MICBR80 in assay [5] was > 100,000 µg/mL; in assay [6] it was 12,500 µg/mL; in assay [10] it was 12,500 µg/mL; in assay [11], 100,000 µg/mL. In [7], the MICBM80 is on record as 12,500 µg/mL. The MICPC80 in assay [8] is listed as 6250 µg/mL; in [9], 3130 µg/mL; in assay [13] it was 12,500 µg/mL. Also, the MICMPB80 in assay [12] was 12,500 µg/mL.
